Measurements taken from patent US20230405003A1, “APPLICATION OF THYMIDINE DERIVATIVE IN PREPARATION OF DRUGS” (ONQUALITY PHARMACEUTICALS CHINA LTD., priority 2020, published 2023).
Like-named read-outs stand apart in the source and are kept apart here.

Tests used:
HaCaT cells = assay: Relief of 5-FU proliferative toxicity to HaCaT cells (CCK-8 cell survival); format: cell-based; conditions: 5-Fu 20 μM, HaCaT cells
How it was run: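 HaCaT keratinocytes (5000–10000/well) cultured 24 h, then exposed 48 h to 5-FU alone or with thymidine derivative, or thymidine plus uridine derivative mix, versus solvent-matched blanks. Survival by CCK-8; value is % increase in survival over 5-FU alone, t-test.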

[1] = test system: hand-foot syndrome caused by capecitabine in SD rats; assay: Rat model of hand-foot syndrome caused by capecitabine, gel application; format: in vivo; conditions: Rattus norvegicus, topical, 960 h, rats, capecitabine 4000 mg/kg once daily, gel 3 wt%, 40 days
How it was run: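 Female SD rats (~200 g, n=10/group) were given daily oral capecitabine (castor oil/ethanol 1:1, diluted with PBS). Thymidine derivative gel, alone or combined with uridine derivative, or blank gel was applied to both hind paws for ~4 h daily until blank controls developed hand-foot syndrome. Control rate was blank incidence minus treated incidence; paws were also examined by HE and IHC.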

[2] = test system: pain in capecitabine hand-foot syndrome rats; assay: Pain of hand-foot syndrome, mechanical sensitivity in rats (von Frey); format: in vivo, rat; conditions: capecitabine 4000 mg/kg hand-foot syndrome rats; thymidine derivative 3%
How it was run: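 Hand-foot syndrome induced in rats with 4000 mg/kg capecitabine; thymidine derivative given at 3%, or at 1% together with a uridine derivative at 3%. After acclimatisation on a mesh floor, palms were probed with von Frey filaments of 0.4–20 g to gauge mechanical sensitivity; ambiguous responses were retested.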

## Cc1cn([C@H]2C[C@H](OC(=O)C(C)c3cccc(C(=O)c4ccccc4)c3)[C@@H](CO)O2)c(=O)[nH]c1=O (stereo partly shown) [T50]
HaCaT cells; selected compound final concentration 2 μM
  Cell Survival Rate (increased percentage of cell survival compared with the Group of 5-FU): 13%-20%
HaCaT cells; selected compound final concentration 4 μM
  Cell Survival Rate (increased percentage of cell survival compared with the Group of 5-FU): 26%-33%
HaCaT cells; selected compound final concentration 8 μM
  Cell Survival Rate (increased percentage of cell survival compared with the Group of 5-FU): 36%-43%
HaCaT cells; selected compound final concentration 16 μM
  Cell Survival Rate (increased percentage of cell survival compared with the Group of 5-FU): 47%-53%
HaCaT cells; selected compound final concentration 32 μM
  Cell Survival Rate (increased percentage of cell survival compared with the Group of 5-FU): 68%-76%
HaCaT cells; selected compound final concentration 62.5 μM
  Cell Survival Rate (increased percentage of cell survival compared with the Group of 5-FU): 74%-82%
HaCaT cells; selected compound final concentration 125 μM
  Cell Survival Rate (increased percentage of cell survival compared with the Group of 5-FU): 75%-85%
HaCaT cells; selected compound final concentration 250 μM
  Cell Survival Rate (increased percentage of cell survival compared with the Group of 5-FU): 75%-82%
HaCaT cells; selected compound final concentration 500 μM
  Cell Survival Rate (increased percentage of cell survival compared with the Group of 5-FU): 65%-73%
HaCaT cells; selected compound final concentration 1000 μM
  Cell Survival Rate (increased percentage of cell survival compared with the Group of 5-FU): 58%-65%
[1]; read-out: Control Rate Forepaws
  inhibition in vivo at 3 %: 71.4%
[1]; read-out: Control Rate Hindpaws
  inhibition in vivo at 3 %: 57.1%
[2]
  pain in rats (von Frey mechanical sensitivity): could significantly improve pain in rats
